From ChEMBL document CHEMBL4732051, “The discovery of potent small molecule activators of human STING” (Eur J Med Chem, 2021) come the findings set out here.

The source made the active and inactive calls. No cut-off for these calls is given here.

Series [1] deals with Cytochrome P450 2C9 (Homo sapiens, UniProt P11712). As to the kind of experiment: Inhibition of CYP2C9 (unknown origin). The class given is ADME.
For series [2], the system named is Stimulator of interferon genes protein (Homo sapiens), Q86WV6 [G230A,R293Q]. As to the kind of experiment: Induction of STING AQ mutant (unknown origin) expressed in HEK293T cells assessed as increase in luciferase coupled ISG54-ISRE activity incubated for 18 hrs luciferase reporter gene assay. The class given is cell-based. The note with it: filed as activator.

Series [3] has as its target T1, Cytochrome P450 1A2 (Homo sapiens, UniProt P05177).
T1 sequence (P05177 whole entry): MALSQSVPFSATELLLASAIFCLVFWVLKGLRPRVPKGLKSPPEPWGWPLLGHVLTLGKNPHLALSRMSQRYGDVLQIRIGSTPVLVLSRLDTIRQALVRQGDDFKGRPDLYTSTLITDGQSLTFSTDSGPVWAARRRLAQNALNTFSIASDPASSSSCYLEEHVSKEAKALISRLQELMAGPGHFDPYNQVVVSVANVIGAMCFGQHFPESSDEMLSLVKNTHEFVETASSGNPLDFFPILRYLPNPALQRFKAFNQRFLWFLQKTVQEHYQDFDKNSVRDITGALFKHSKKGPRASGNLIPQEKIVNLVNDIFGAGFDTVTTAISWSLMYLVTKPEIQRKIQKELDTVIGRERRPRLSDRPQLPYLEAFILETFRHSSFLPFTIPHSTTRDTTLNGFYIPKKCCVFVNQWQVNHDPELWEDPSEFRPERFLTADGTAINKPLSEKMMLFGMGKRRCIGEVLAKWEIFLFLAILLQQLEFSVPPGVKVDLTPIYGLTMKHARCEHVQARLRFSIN
The series can be described thus: Inhibition of CYP1A2 (unknown origin). The format is ADME.

Stimulator of interferon genes protein (Homo sapiens), Q86WV6 [G230A,R293Q], sequence (Q86WV6 whole entry G230A/R293Q): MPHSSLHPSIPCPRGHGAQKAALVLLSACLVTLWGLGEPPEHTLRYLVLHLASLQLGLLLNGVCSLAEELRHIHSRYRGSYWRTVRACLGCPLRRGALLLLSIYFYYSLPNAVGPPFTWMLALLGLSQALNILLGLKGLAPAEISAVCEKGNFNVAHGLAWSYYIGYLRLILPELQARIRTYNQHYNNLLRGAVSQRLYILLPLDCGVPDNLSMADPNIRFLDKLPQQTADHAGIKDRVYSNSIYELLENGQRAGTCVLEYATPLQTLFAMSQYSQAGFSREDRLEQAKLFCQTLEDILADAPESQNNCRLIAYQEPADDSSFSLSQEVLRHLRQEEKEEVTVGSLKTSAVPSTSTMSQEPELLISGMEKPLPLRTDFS
Cytochrome P450 2C9, sequence (P11712 whole entry): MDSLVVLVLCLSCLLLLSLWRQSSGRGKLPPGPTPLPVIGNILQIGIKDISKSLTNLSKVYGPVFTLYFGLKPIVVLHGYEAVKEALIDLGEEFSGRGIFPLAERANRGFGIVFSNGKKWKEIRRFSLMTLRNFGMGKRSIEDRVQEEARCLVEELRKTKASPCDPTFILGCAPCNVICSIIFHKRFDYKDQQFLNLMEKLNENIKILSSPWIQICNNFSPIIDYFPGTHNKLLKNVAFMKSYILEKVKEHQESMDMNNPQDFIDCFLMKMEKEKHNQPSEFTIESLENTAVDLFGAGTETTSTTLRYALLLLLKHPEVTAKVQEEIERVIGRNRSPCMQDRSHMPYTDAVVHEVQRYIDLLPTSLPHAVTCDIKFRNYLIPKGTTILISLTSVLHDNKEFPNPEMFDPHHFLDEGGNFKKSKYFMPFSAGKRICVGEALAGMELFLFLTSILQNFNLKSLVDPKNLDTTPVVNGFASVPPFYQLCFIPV

On to `CC1(C)C(=O)N(Cc2c(F)cccc2Cl)c2cc(C(=O)NCc3c(F)cc(F)cc3F)ccc21`, for which the “inhibition (INH)” value in series [1] and in series [3] was “Not Active” in each case. In addition, the result in series [2] was Active.
